Data on six compounds can be found in patent US20250057865A1, “ANTIVIRAL SUPPLEMENT FORMULATIONS FOR HERPESVIRUS INFECTIONS” (priority 2023, published 2025).

One data set deals with HSV-2-Luc. Kind of data set: microbe, parasite or virus in culture. The format is cell-based, herpes simplex virus 2. Conditions: for efficacy against HSV-2 (in words): ARPE-19, 24 h post-infection; for EC50: Human alphaherpesvirus 2, ARPE-19, 24 h, 24 h; for SI (CC50/EC50): Table 10, HSV2, buffered medium. On the procedure: (§1) Next, cells were infected at a MOI of 0.05 with either HSV-1 R8411 or HSV-2-Luc, both which expresses firefly luciferase, in either standard DMEM medium (10% FBS) or standard DMEM medium (10% FBS) buffered with 3.024 g/L sodium bicarbonate. Treatments were prepared in the different medium conditions and added at the time of infection. All assays were imaged at 24 h post-infection and/or treatment. The compounds tested for this experiment included: Test Composition in unbuffered medium, Test Composition in buffered medium, acyclovir in unbuffered medium and acyclovir in buffered medium. All graphs, EC50, CC50, and CC50/EC50 calculations were performed using GraphPad software based on Lysine equivalent concentrations.
(§2) HSV-1 or HSV-2 infected cells were measured by bioluminescence imagining in the dose-response assay. Each plate contained a set of untreated wells in each media condition (unbuffered or buffered) to be used as baseline. Test composition concentrations ranged from 3.2 μM to 50 mM in a 1:5 dilution series. Acyclovir concentrations ranged from 0.00256 to 40 μM in a 1:5 dilution series.
(§3) Assays were performed as previously described. […] Next, cells were infected at a MOI of approximately 0.05 with either HSV-1 R8411 or HSV-2 MS-Luciferase, both which expresses firefly luciferase, in DMEM (10% FBS) buffered with 3.024 g/L sodium bicarbonate. Antiviral compounds were prepared in the buffered media, added at the time of infection, and remained for the duration of the assay. Both HSV1 and HSV2 cultures were scanned at 24 h post-infection. Each plate contained untreated wells as a baseline for comparison. The solutions evaluated included original Test Composition and various sets of its components, as well as acyclovir (ACV; control). The table below includes a breakdown of all the different component formulations. Graphs were produced, EC50, and CC50 calculations were performed using GraphPad. Concentrations for Test Composition and its components ranged from 3.2 μM to 50 mM in a 1:5 dilution series. Acyclovir concentrations ranged from 0.00256 to 40 μM in a 1:5 dilution series.

A short description of data set [1]: in vitro. It is filed as cell-based. Conditions: human, Table 10 HSV1 half, ARPE-19, buffered medium. How it is done:
as §3

For a further data set, the system named is HSV-1 R8411. Kind of data set: microbe, parasite or virus in culture. Conditions: for efficacy against HSV-1 (in words): ARPE-19, 24 h post-infection; for EC50: Human alphaherpesvirus 1, ARPE-19, 24 h, 24 h; for SI (CC50/EC50): Table 10, HSV1, buffered medium. It is filed as cell-based, herpes simplex virus 1. On the procedure: as §1, §2, §3
A further data set relates to ARPE-19 cells. As to the kind of experiment: Cell effect in absence of virus assay, ARPE-19 cells, 72 h, Neutral Red. The format is cell-based. Conditions: ARPE-19, Buffered DMEM.
Test in data set [2]: as above
It is filed as cell-based. To be noted: human, ARPE-19 cells, ARPE-19, Unbuffered DMEM.

For another data set, the system named is VZV-ORF57-Luc. Kind of data set: microbe, parasite or virus in culture. It is filed as cell-based, varicella zoster virus. Conditions: for EC50: Human alphaherpesvirus 3, ARPE-19, 72 h, 72 h. How it is done: (§4) VZV- or HCMV-infected cells were measured by bioluminescence imagining in the efficacy or dose-response assay. Assays were performed as previously described, with a few modifications. […] Next, cells were infected at a MOI of approximately 0.05 with either VZV-ORF57-Luc or HCMV-eGFP-fLuc, both which expresses firefly luciferase, in either standard DMEM (10% FBS) or DMEM (10% FBS) buffered with 3.024 g/L sodium bicarbonate.
(§5) Antiviral Test Compositions were prepared in the two media, added at the time of infection, and remained for the duration of the assay. VZV cultures were scanned at 72 h post-infection, and HCMV cultures were scanned at 7 days post-infection. Each plate contained untreated wells in each media condition (unbuffered or buffered) as a baseline. Test Composition in unbuffered medium, Test Composition in buffered medium, cidofovir positive control (CDV; for VZV) or ganciclovir positive control (GCV; for HCMV) in unbuffered medium, and CDV (for VZV) or GCV (for HCMV) in buffered medium. All graphs, EC50, and CC50 calculations were performed using GraphPad. Test Composition concentrations ranged from 3.2 μM to 50 mM in a 1:5 dilution series based on Lysine concentrations. Cidofovir concentrations ranged from 0.00128 to 20 μM in a 1:5 dilution series. Ganciclovir concentrations ranged from 0.0064 to 100 μM in a 1:5 dilution series.

Another data set concerns HCMV-eGFP-fLuc. Kind of data set: HCMV bioluminescence dose-response assay in HFFs. The format is cell-based, human cytomegalovirus. Conditions: unbuffered and buffered medium. On the procedure: as §4, §5
The nature of data set [3]: in vitro. To be noted: human, human foreskin fibroblasts (HFFs).
Experimental: (§6) For the cell effect in absence of virus assay, ARPE-19 cells or HFFs were seeded into 96-well plates and grown for 72 h as described above. Cells were treated with Test Composition in either unbuffered or buffered medium ranging from 1 μM to 100 mM (1:10 dilution). Cidofovir was tested in a range from 0.001 to 100 μM (1:10 dilution). Ganciclovir was tested in a range from 0.002 to 200 μM (1:10 dilution). ARPE-19 cells were treated with Test Composition or Cidofovir for 72 h, then cells were stained with Neutral Red dye and absorbance was measured at 540 nm. HFFs were treated with original Test Composition or Ganciclovir for 7 d, then cells were stained with Neutral Red dye and absorbance was measured at 540 nm.
The subject of data set [4] is human foreskin fibroblasts (HFFs). To be noted: Buffered DMEM, 7 d.
Experimental: as §6
For data set [5] the following is noted: in vivo; cited from earlier work.
The conditions of data set [6]: adults; cited from earlier work.

SMILES strings stand for the structures. A value given as a limit tells only on which side of the number the result lay.

For the compound `Nc1nc2c(ncn2COCCO)c(=O)[nH]1` [Acyclovir, acyclovir], the “efficacy against HSV-2 (in words)” value with HSV-2-Luc is reported as “worked”; in the data set with HSV-2-Luc (listed as acyclovir), “effective”. Besides, the EC50 in the data set on HSV-2-Luc (HSV-2, ARPE-19, Buffered DMEM) came out at 6.66 µM; with HSV-2-Luc (HSV-2, ARPE-19, Unbuffered DMEM), 7.89 µM; with HSV-2-Luc (Table 10, HSV2, ARPE-19, buffered medium, curves plotted as L-lysine HCl or acyclovir concentration (uM), FIG. 6) it was 33.1 µM; in the data set with HSV-1 R8411 (HSV-1, ARPE-19, Buffered DMEM (sodium bicarbonate)), 0.156 µM; with HSV-1 R8411 (HSV-1, ARPE-19, Unbuffered DMEM, Lysine equivalent concentration), 0.645 µM; in the data set with HSV-1 R8411 (Table 10, HSV1, ARPE-19, buffered medium, curves plotted as L-lysine HCl or acyclovir concentration (uM), FIG. 5), 0.225 µM. Also, the “SI (CC50/EC50)” value with HSV-2-Luc is listed as 3.02; in the data set with HSV-1 R8411 it was 444.44. In “in vitro [1]”, this compound returned a CC50 at 24 h of at least 100 µM. Besides, the entries for the “efficacy against HSV-1 (in words)” value with HSV-1 R8411 and in the data set with HSV-1 R8411 (listed as acyclovir) were “worked” and “effective”, respectively.
`Nc1ccn(C[C@@H](CO)OCP(=O)(O)O)c(=O)n1` [Cidofovir, cidofovir] returned a CC50 in the data set with ARPE-19 cells of over 100 µM. Besides, the CC50 at 72 h in data set [2] was over 100 µM. In addition, in the data set with VZV-ORF57-Luc (ARPE-19, unbuffered and buffered medium), the “efficacy against VZV (in words)” value was “effective”. The EC50 in the data set on VZV-ORF57-Luc (VZV, ARPE-19, Buffered DMEM) was 19 µM; in the data set on VZV-ORF57-Luc (VZV, ARPE-19, Unbuffered DMEM), 1.72 µM. Also, the “increase of EC50 in buffered medium versus unbuffered medium” value with VZV-ORF57-Luc (VZV) is 10 fold. The “SI (CC50/EC50)” value with VZV-ORF57-Luc (VZV, Buffered DMEM) came out at 5.3; in the data set on VZV-ORF57-Luc (VZV, Unbuffered DMEM), 58.2.
With `Nc1nc(O)c2ncn(COC(CO)CO)c2n1` [Ganciclovir, ganciclovir], in the data set on HCMV-eGFP-fLuc, the “efficacy against HCMV (in words)” value is “not effective”. Besides, the CC50 at 7 d in the data set “in vitro [3]” is over 200 µM. This compound also showed a CC50 in data set [4] of over 200 µM.
For `Cl.NCCCC[C@H](N)C(=O)O` [Solution 2, L-lysine monohydrochloride], the “rank of efficacy among test solutions 1-11 against HSV2” value in the data set with HSV-2-Luc (ARPE-19, buffered medium) is “least effective”. The “SI (CC50/EC50)” value turned out to be 2.5 in the data set on HSV-2-Luc and 5 in the data set on HSV-1 R8411. For the same compound, the “rank of efficacy among test solutions 1-11 against HSV1” value in the data set with HSV-1 R8411 (ARPE-19, buffered medium) is reported as “least effective”.
In the case of `CC(C)[C@H](N)C(=O)OCCOCn1cnc2c(=O)[nH]c(N)nc21` [Valacyclovir], in data set [5], the fraction eliminated renally is listed as 89%.
`Cc1ncc(CO)c(CO)c1O` [Vitamin B6, Pyridoxine]: in data set [6], the intake usually safe entry is listed as “up to 200 mg per day”.
